The melting point is the temperature of the solid-liquid transition. `CCNC(=O)CN(c1ccccc1)[C@@H]1c2cc(C#N)ccc2OC(C)(C)[C@@H]1O` gave a melting point of 202 to 204 °C.

As to `Cc1ncsc1CCSc1ccnc(CSc2nc3ccccc3[nH]2)c1C`, the melting point was in the range of 150 to 152 °C.

`O=C(NCCO)c1cccc(-c2ccc3c(n2)N(Cc2ccc(Cl)cc2Cl)CC3)c1`: the melting point lay within 142 to 143 °C.

In turn, `ClCc1ccc(-c2nnc3n2-c2cccnc2Nc2ccccc2-3)cc1` came in with a melting point of 260 to 262 °C.

Molecule `CCOC(=O)c1ccccc1N(CC(=O)N(C)c1ccccc1)C(=O)CNC(=O)Nc1cccc(C(C)O)c1` (centres undefined) yielded a melting point of 195 °C.

Molecule `CCOC(=O)c1c(Cn2cncn2)nc2sc3c(c2c1-c1ccc(OC)c(OC)c1)CCNC3` showed a melting point of 164 to 165 °C.

The molecule `COc1cccc(Nc2ccnc(Nc3cc(OC)c(OC)c(OCc4ccccc4)c3)n2)c1` registered a melting point of 83 to 84 °C.

Consider `CCCCCCCCCCCCNC(=O)c1cc(-c2cccc(OC)c2)c(OCC(=O)O)c(-c2cccc(OC)c2)c1`, for which the melting point fell in the range of 57 to 58 °C.

The molecule `S=C(CCC(c1ccccc1)(c1ccccc1)c1ccccc1)Oc1c(Cl)c(Cl)c(Cl)c(Cl)c1Cl` had a melting point of 154 to 156 °C.

Turning to `CC(c1oc2ccccc2c(=O)c1-c1cccc(F)c1)n1nc(-c2ccc(C=O)o2)c2c(N)ncnc21` (centres undefined), the melting point was 215 to 217 °C.

`CCCCCCOc1c(Br)ccc2c(OCCCCCC)c(Br)ccc12` showed a melting point of 41 to 43 °C.

With `CCc1ccc2c(c1)C=Cc1cc(C)ccc1C2c1cn(-c2nccc(C(=O)NCC(=O)O)n2)c(=O)[nH]c1=O` (centres undefined), the melting point lay within 195 to 198 °C.

For `CCCCCCNc1ccc(N=O)cc1`, the melting point lay within 46 to 48 °C.

With `OCc1ccc(OCc2coc(-c3ccccc3)n2)cc1`, the melting point is 141 to 142 °C.

Consider `O=C(O)Cc1cccc(Oc2ccc(Cl)cc2)c1O`, for which the melting point was in the range of 100 to 102 °C.

In turn, `CC(C)(C)CNCc1nc(-c2ccc3c(c2)Nc2ccccc2S3)cs1` had a melting point of 172 to 174 °C.

`Cc1ccc(C(O)c2cc3ccncc3[nH]2)cc1` (centres undefined) displayed a melting point of 78 to 82 °C.

With `CS(=O)(=O)c1ccc(-c2cnn(C3CCC3)c(=O)c2-c2ccc(F)cc2)cc1`, the melting point lay in the range of 202 to 203 °C.

`CC(=O)N(C)c1cccc(S(=O)(=O)c2ccc([N+](=O)[O-])cc2)c1` gave a melting point of 194 to 195 °C.

As for `CC(Nn1cncn1)(c1ccc(F)cc1)c1ccc(F)cc1`, the melting point lay within 114 to 119 °C.

`Cc1nnsc1C(=O)Nc1ccc(-n2nc(C(F)(F)F)c(Cl)c2C2CC2)c(F)c1` displayed a melting point of 143 to 147 °C.

`CCN(CC)CCN1C(=O)c2cscc2N(C)c2ccccc21`: the melting point was 92 to 93 °C.

On to `O=C1COc2ccc(C3=Nn4cnnc4SC3c3ccccc3Cl)cc2N1` (centres undefined), for which the melting point was 234 to 235 °C.

Molecule `CC(C)NC(=O)NCCCOc1cc(CN2CCCCC2)ccn1` showed a melting point of 58 to 60 °C.

`COc1ccccc1NC(=O)c1ccc(C#N)cc1` registered a melting point of 158 to 160 °C.

`Cc1ccc(-n2c(=O)[nH]c(C(F)(F)F)c(F)c2=O)cc1C(=O)OC(C)C` came in with a melting point of 97 to 100 °C.

Molecule `CCCC=Cc1c(C(C)C)nc(C(C)C)c(CO)c1-c1cccc(Cl)c1` gave a melting point of 101 to 104 °C.

On to `CC1(C(=O)N2C[C@@H](O)C[C@H]2C(=O)NC2(C#N)CC2)CC1`, for which the melting point turned out to be 160 °C.

In turn, `O=C(CCCCCNC(=O)c1ccco1)NO` showed a melting point of 114 to 115 °C.

With `CC(C)(C)n1nc(-c2ccoc2)c(C(N)=O)c1N`, the melting point was found to be 177 °C.

On to `CN(C(=O)c1ccccc1)c1cccc(-c2nc(=O)c3ccccc3s2)n1`, for which the melting point lay within 234 to 235 °C.

`COc1ccc(CC(=O)C=NN=P(c2ccccc2)(c2ccccc2)c2ccccc2)cc1` yielded a melting point of 111 to 112 °C.

Regarding `Cc1oc(-c2ccccc2)nc1Cc1cc2cc(C#N)ccc2o1`, the melting point was 139 to 140 °C.

As to `CC(C)(C)N(N=O)C1CCCCC1`, the melting point amounted to 87 °C.
